Laboratory results as given in publication PMC9972480, “Synthesis of Quinoline and Dihydroquinoline Embelin Derivatives as Cardioprotective Agents” (Journal of Natural Products, 2023).
Read-outs that look alike come from different tables or passages of the source. Marks after values point to notes of the source that are not given here.

Experiments:
[1] = test system: MCF-7 human breast tumor cells; experiment: Effect on chemotherapeutic activity of DOX, MTT; assay type: cell-based; details: MCF-7 cells, compound 20 μM + DOX 1 μM, 24 h
Method: Next, cytotoxicity of the selected compounds was also tested in MCF-7 breast cancer cells to disconfirm that protective effects might antagonize the antitumor effects of doxorubicin.
Figure 4 Effects of derivatives 4i, 6a, 6d, 6e, 6k, and 6m on the chemotherapeutic activity of DOX in MCF-7 human breast tumor cells. Cells were co-treated with selected compounds at 20 μM and DOX (1 μM) for 24 h. Cell viability was measured by MTT assay. Results are reported as mean of cell viability ± SD (n = 3). ****p < 0.0001 vs DOX-treated cells.
(§1) Cell viability was assessed by conducting an MTT [3-(4,5-dimethylthiazol-2-yl)-2,5-diphenyltetrazolium bromide dye] assay. Briefly, J 774A.1, H9c2, and MCF7 cells were seeded in 96-well plates for 24 h. Then, cells were treated with DOX in the absence or presence of compounds. MTT (Sigma) reagent was added to the medium for 1 h at 37 °C. Then, the formazan was dissolved in dimethyl sulfoxide (DMSO, 100 μL). Absorbance was measured at 540 nm with a microplate reader (BMG Labtech).

[2] = MTT cell viability assay (cytotoxicity) in H9c2 cardiomyocytes; assay type: cell-based, rat; details: rat, H9c2 cardiomyocytes, 24 h, MTT; for IC50 at 24 h: H9c2 cardiomyocytes (embryonic heart-derived cells), stated for both types of cells; for viability at 24 h, 10 µM / viability at 24 h, 20 µM: mean ± SD, n = 3
Method: (§2) The potential cytotoxicity of embelin (1) together with derivatives (4a–4m, 5a–5d, 6a–6m) was tested in cardiomyocytes and macrophages in order to ensure that compounds lack toxicity also in immune cells. Cell viability was determined by the MTT assay.[58] Four dihydroquinoline derivatives (4b, 4f, 4i, and 4m) and six quinoline compounds (6a, 6d, 6e, 6i, 6k, and 6m) maintained higher viable cell rates in both types of cells. IC50 values of these derivatives were higher than 40 μM and were selected for further analysis.
(§3) J774A.1 murine macrophage cells, H9c2 embryonic rat heart-derived cells, and MCF-7 breast cancer cells were purchased from American Type Cell Culture (ATCC, Manassas, VA, USA). Cells were cultured in Dulbecco’s modified Eagle medium with 10% fetal bovine serum and 1% penicillin/streptomycin (Lonza) and were maintained at 37 °C in a humidified incubator containing 5% CO2.
as §1

[3] = MTT cell viability assay (cytotoxicity) in J774 macrophages; assay type: cell-based, murine; details: mouse
Method: as §2, §3, §1

ROS in H9c2 cells = experiment: Intracellular ROS levels, DCFH-DA assay; assay type: cell-based, rat; details: for ROS production on co-treatment with DOX: compound 20 μM + DOX 1 μM, 24 h, vs DOX-treated cells
Method: Oxidative stress is produced by an imbalance between radical oxygen species (ROS) formation and endogenous antioxidant activation in reaction to cell injury, leading to myocardial toxicity. Accordingly, DOX-induced ROS production in the H9c2 cells was quantified with the DCFH-DA fluorogenic dye. […] No effects on ROS production were observed when compounds were incubated alone with cells. […] The inhibitory effects of embelin derivatives were similar to those induced by N-acetyl-cysteine (NAC), a well-known antioxidant.
Figure 5 Derivatives 4i, 6a, 6d, 6k, and 6m reduced ROS levels produced by DOX in H9c2 cells. Levels of ROS in H9c2 cells were measured fluorometrically after treatment with DOX (1 μM) alone or co-treatment with N-acetyl cysteine (NAC, 1 mM) or selected derivatives (20 μM) for 24 h, using the 2′,7′-dichlorfluorescein-diacetate (DCFH-DA) assay. Values are expressed as mean ± SD with respect to DOX-treated cells (n = 3). ****p < 0.0001 vs DOX-treated cells.
Intracellular ROS levels in H9c2 cells were evaluated by monitoring the oxidation of 2′,7′-dichlorfluorescein-diacetate (DCFH-DA) (Sigma) to fluorescent dichlorofluorescein. Cells were treated with DOX (1 μM) in the absence or presence of compounds or NAC as ROS inhibitor (1 mM) (Sigma). Then, cells were incubated with 10 μM DCFH-DA at 37 °C in the dark for 30 min. ROS level was fluorimetrically evaluated at 485/550 nm during 24 h.

H9c2 cardiomyocytes = experiment: MTT cell viability assay (cytotoxicity) in H9c2 cardiomyocytes; assay type: cell-based, rat
Method: as §2, §3, §1

J774 macrophages = experiment: MTT cell viability assay (cytotoxicity) in J774 macrophages; assay type: cell-based, murine
Method: as §2, §3, §1

| Molecule | Effect on antitumor (chemotherapeutic) activity of DOX [1] | IC50 at 24 h [2] [µM] | viability at 24 h, 10 µM [2] [%] | viability at 24 h, 20 µM [2] [%] | IC50 at 24 h [3] [µM] | viability at 24 h, 10 µM [3] [%] | viability at 24 h, 20 µM [3] [%] | ROS production on co-treatment with DOX (ROS in H9c2 cells) | melting point [°C] | Cell viability (%) H9c2 cardiomyocytes 10 μM (H9c2 cardiomyocytes) [%] | Cell viability (%) H9c2 cardiomyocytes 20 μM (H9c2 cardiomyocytes) [%] | IC50 (H9c2 cardiomyocytes) [µM] | Cell viability (%) J774 macrophages 10 μM (J774 macrophages) | Cell viability (%) J774 macrophages 20 μM (J774 macrophages) | IC50 (J774 macrophages) [µM] | IC50 (H9c2 cardiomyocytes; Rattus norvegicus, H9c2 cardiomyocytes, 24 h, MTT, read-out: IC50 (loss in cell viability, DOX-treated vs untreated cells)) [µM] | Levels of ROS compared to untreated cells (ROS in H9c2 cells; DOX 1 μM alone) |
| --- | --- | --- | --- | --- | --- | --- | --- | --- | --- | --- | --- | --- | --- | --- | --- | --- | --- |
| CCCCCCCCCCCC1=C(O)C(=O)c2c(nc3ccccc3c2-c2ccc([N+](=O)[O-])cc2)C1=O [Compound 6a, 2-Hydroxy-9-(4-nitrophenyl)-3-undecylacridine-1,4-dione] | without reducing DOX’s chemotherapeutic effect | > 40 | 97.6 ± 7 | 87.8 ± 6.9 | > 40 | 96.3 ± 2.1 | 76.9 ± 2.8 | significantly inhibited ROS production | – | – | – | – | – | – | – | – | – |
| CCCCCCCCCCCC1=C(O)C(=O)c2c(nc3ccc(Br)cc3c2-c2ccc([N+](=O)[O-])cc2)C1=O [Compound 6m, 7-Bromo-2-hydroxy-9-(4-nitrophenyl)-3-undecylacridine-1,4-dione] | without reducing DOX’s chemotherapeutic effect | > 40 | 89.8 ± 7.6 | 85.9 ± 8.2 | > 40 | 99.6 ± 4.6 | 86.4 ± 8.7 | significantly inhibited ROS production | – | – | – | – | – | – | – | – | – |
| CCCCCCCCCCCC1=C(O)C(=O)C2=C(Nc3ccccc3C2c2ccc(C)c(C)c2)C1=O (stereo not shown) [Compound 4i, 2-Hydroxy-9-(3,4-dimethylphenyl)-3-undecyl-9,10-dihydroacridine-1,4-dione] | without reducing DOX’s chemotherapeutic effect | > 40 | 84.3 ± 6.8 | 82.2 ± 6.2 | > 40 | 96.2 ± 6.8 | 72.6 ± 1.7 | significantly inhibited ROS production | 106 to 108 | – | – | – | – | – | – | – | – |
| 2-Hydroxy-7-methoxy-9-(4-nitrophenyl)-3-undecylacridine-1,4-dione [Compound 6k] | without reducing DOX’s chemotherapeutic effect | – | – | – | – | – | – | significantly inhibited ROS production | – | 99.2 ± 0.8 | 94.4 ± 6.3 | > 40 | 81.9 ± 4.6 ^e % | 76.3 ± 5.3 ^e % | > 40 | – | – |
| CCCCCCCCCCCC1=C(O)C(=O)c2c(nc3ccccc3c2-c2ccc(Br)cc2)C1=O [Compound 6d, 2-Hydroxy-9-(4-bromophenyl)-3-undecylacridine-1,4-dione] | without reducing DOX’s chemotherapeutic effect | > 40 | 99.4 ± 0.2 | 99.3 ± 2.6 | > 40 | 82.1 ± 3.7 | 74.5 ± 3.9 | significantly inhibited ROS production | – | – | – | – | – | – | – | – | – |
| COc1cccc2c1C(=O)c1c(O)c3c(c(O)c1C2=O)C[C@@](O)(C(=O)CO)C[C@@H]3O[C@H]1C[C@H](N)[C@H](O)[C@H](C)O1 [DOX, Doxorubicin, reference compound] | – | – | – | – | – | – | – | – | – | – | – | – | – | – | – | 0.83 | significantly increased the levels of ROS |
| CCCCCCCCCCCC1=C(O)C(=O)C2=C(Nc3ccc(Br)cc3C2c2ccc([N+](=O)[O-])cc2)C1=O (stereo not shown) [Compound 4m, 7-Bromo-2-hydroxy-9-(4-nitrophenyl)-3-undecyl-9,10-dihydroacridine-1,4-dione] | – | > 40 | 96.5 ± 5.5 | 96.2 ± 4.8 | > 40 | 94.7 ± 4.2 | 77.2 ± 4.9 | – | 236 to 237 | – | – | – | – | – | – | – | – |
| CCCCCCCCCCCC1=C(O)C(=O)C2=C(Nc3ccccc3C2c2ccc(OC)c(OC)c2)C1=O (stereo not shown) [Compound 4j, 2-Hydroxy-9-(3,4-dimethoxyphenyl)-3-undecyl-9,10-dihydroacridine-1,4-dione] | – | – | 68.9 ± 3.6 | 60.6 ± 4.9 | – | 89.1 ± 5.5 | 36.9 ± 3.8 | – | 152 to 154 | – | – | – | – | – | – | – | – |
